Assay [1] has as its system A549R (cisplatin-resistant A549). Briefly: MTT cytotoxicity assay. The assay is classed as cell-based, human. The conditions noted are these: MTT, 48 h incubation, mean ± SD. As for the experimental part: (§1) The anticancer activities of RuRe-1 and RuRe-2 against four cancer cell lines: HeLa (human cervical cancer cells), HepG2 (human hepatocellular carcinoma), A549 (human lung cancer cells), A549R (cisplatin-resistant A549) and one normal cell line LO2 (human normal liver cells) were determined by 3-(4,5-dimethylthiazole)-2,5-diphenyltetraazolium bromide (MTT) assay, while the mononuclear complexes Ru-1, Ru-2, Re-1 and cisplatin were selected as controls. […] And the in vitro antiproliferative efficacies of the compounds against HeLa cells were in the following order: RuRe-2 > RuRe-1 > Re-1 > cisplatin > Ru-1 > Ru-2. […] The anticancer activity of the mononuclear rhenium complex Re-1 was between 5.6 μM and 8.0 μM, which contributed the most to the antitumor activities of the heteronuclear Ru(II)-Re(Ⅰ) metal complexes.
(§2) Cell lines and culture conditions. HeLa, HepG2, A549, A549R and LO2 cells were purchased from Nanjing KeyGen Biotech., and cultured in DMEM or RPMI 1640 complete medium at 37 ℃ with 5% CO2 atmosphere.
(§3) In vitro cytotoxicity assay. The anti-tumor activity of mononuclear complexes Ru-1, Ru-2, Re-1 and heteronuclear RuRe-1 and RuRe-2 were determined by MTT (5 mg/mL) assay. Cells were placed in 96-well plates and cultured for 24 h at 37 ℃ in a 5% CO2 incubator. After replacing the culture medium with fresh medium containing RuRe-1 or RuRe-2 at the indicated concentration, cells were cultured for 48 h. 20 μL MTT was added to each well 4 h before the end of the incubation. Subsequently, the liquid in the cell wells was poured out and 150 μL/well DMSO was added to dissolve the MTT-formazan crystals. The absorbance of living cells at 570 nm was detected.

In assay [2] the test system is HeLa, HepG2, A549, A549R cancer cell lines. Briefly: MTT cytotoxicity assay, summary over the cell lines screened. The assay is classed as cell-based, human. The note with it: 48 h. As to the method: as §1
In vitro cytotoxicity assay. The anti-tumor activity of mononuclear complexes Ru-1, Ru-2, Re-1 and heteronuclear RuRe-1 and RuRe-2 were determined by MTT (5 mg/mL) assay. Cells were placed in 96-well plates and cultured for 24 h at 37 ℃ in a 5% CO2 incubator. After replacing the culture medium with fresh medium containing RuRe-1 or RuRe-2 at the indicated concentration, cells were cultured for 48 h. 20 μL MTT was added to each well 4 h before the end of the incubation. […] The absorbance of living cells at 570 nm was detected.
Background: Tetrazolium dyes change colour on reduction, which living cells bring about.

Assay [3] has as its system A549 (human lung cancer cells). Briefly: MTT cytotoxicity assay. The note with it: 48 h incubation, mean ± SD. The format is cell-based. As for the experimental part:
as §1, §2, §3

For assay [4], the system named is HeLa (human cervical cancer cells). In words: MTT cytotoxicity assay. The assay is classed as cell-based. The conditions noted are these: 48 h incubation, mean ± SD. As for the experimental part:
as §1, §2, §3

Assay [5] has as its system HepG2 (human hepatocellular carcinoma). In words: MTT cytotoxicity assay. The format is cell-based. The conditions noted are these: 48 h incubation, mean ± SD. As for the experimental part:
as §1, §2, §3

Assay [6] relates to LO2 (human normal liver cells). Briefly: MTT cytotoxicity assay. The format is cell-based. The note with it: 48 h incubation, mean ± SD. As for the experimental part: as §1, §2, §3

For orientation: IC50 means the concentration that gives 50% inhibition.

As for `F[P-](F)(F)(F)(F)F.F[P-](F)(F)(F)(F)F.[Ru+2].c1ccc(-c2ccccn2)nc1.c1ccc(-c2ccccn2)nc1.c1cnc2c(c1)c1nc(-c3ccncc3)[nH]c1c1cccnc12` [Ru-1, reference compound], the IC50 in assay [1] is > 50 µM; in assay [3], > 50 µM; in assay [4], 39.8 ± 0.6 µM; in assay [5] it was > 50 µM; in assay [6], > 50 µM. In assay [2], the “antitumor activity against all cancer cell lines screened” value is “negligible antitumor activity”.

In the case of `F[P-](F)(F)(F)(F)F.F[P-](F)(F)(F)(F)F.c1cc2ccc3ccc[n+]4c3c2[n+](c1)[Ru-4]412([n+]3cccc4ccc5ccc[n+]1c5c43)[n+]1cccc3c4nc(-c5ccncc5)[nH]c4c4ccc[n+]2c4c31` [Ru-2], the IC50 in assay [1] is > 50 µM; in assay [3], > 50 µM; in assay [4], 43.6 ± 1.2 µM; in assay [5], > 50 µM; in assay [6], > 50 µM. For the same compound, in assay [2], the “antitumor activity against all cancer cell lines screened” value was “negligible antitumor activity”.

Take `N.N.[Cl][Pt][Cl]` [Cisplatin, reference compound]: the concentration for half-maximal inhibition (IC50) turned out to be 90.3 ± 0.3 µM in assay [1]; 25.9 ± 0.8 µM in assay [3]; 19.3 ± 0.5 µM in assay [4]; 23.5 ± 2 µM in assay [5]; 22.5 ± 2 µM in assay [6].

(Values after publication PMC9196629, “Synthesis, Characterization and Antitumor Mechanism Investigation of Heterometallic Ru(Ⅱ)-Re(Ⅰ) Complexes” (Frontiers in Chemistry, 2022).)
